# Assay results from ChEMBL document CHEMBL5728119, “1,2-dithiolane compounds useful in neuroprotection, autoimmune and cancer diseases and conditions” (2020).
# Legend:
# [1] = biological target: T1, Phosphatidylinositol 4,5-bisphosphate 3-kinase catalytic subunit delta isoform (Homo sapiens, UniProt O00329); test: (§1) Radioisotope Filter Binding Assay: IC50 Table 13-20: The protocol calls for test compound of the invention to be incubated with kinase, substrate, cofactors, and radio-isotope-labeled ATP (33P-gamma-ATP). The reaction mixtures are then spotted onto filter papers which bind the radioisotope labeled catalytic product. Unreacted phosphate is removed via washing. The reagents used include base reaction buffer; 20 mM Hepes (pH 7.5), 10 mM MgCl2, 1 mM EGTA, 0.02% Brij35, 0.02 mg/ml BSA, 0.1 mM Na3VO4, 2 mM DTT, 1% DMSO. The reaction procedure include the following steps: (1) prepare indicated substrate in freshly prepared base reaction buffer, (2) deliver any required cofactors to the substrate solution above, (3) deliver indicated kinase into the substrate solution and gently mix, (4) deliver compounds in DMSO into the kinase reaction mixture by Acoustic technology (Echo550; nanoliter range), incubate for 20 minutes at room temperature, (5) deliver 33P-ATP (specific activity 10 μCi/μL) into the reaction mixture to initiate the reaction, (6) incubate kinase reaction for 2 hours at room temperature, (7) reactions are spotted onto P81 ion exchange paper, (8) detect kinase activity by filter-binding method.
# T1 sequence (O00329 whole entry): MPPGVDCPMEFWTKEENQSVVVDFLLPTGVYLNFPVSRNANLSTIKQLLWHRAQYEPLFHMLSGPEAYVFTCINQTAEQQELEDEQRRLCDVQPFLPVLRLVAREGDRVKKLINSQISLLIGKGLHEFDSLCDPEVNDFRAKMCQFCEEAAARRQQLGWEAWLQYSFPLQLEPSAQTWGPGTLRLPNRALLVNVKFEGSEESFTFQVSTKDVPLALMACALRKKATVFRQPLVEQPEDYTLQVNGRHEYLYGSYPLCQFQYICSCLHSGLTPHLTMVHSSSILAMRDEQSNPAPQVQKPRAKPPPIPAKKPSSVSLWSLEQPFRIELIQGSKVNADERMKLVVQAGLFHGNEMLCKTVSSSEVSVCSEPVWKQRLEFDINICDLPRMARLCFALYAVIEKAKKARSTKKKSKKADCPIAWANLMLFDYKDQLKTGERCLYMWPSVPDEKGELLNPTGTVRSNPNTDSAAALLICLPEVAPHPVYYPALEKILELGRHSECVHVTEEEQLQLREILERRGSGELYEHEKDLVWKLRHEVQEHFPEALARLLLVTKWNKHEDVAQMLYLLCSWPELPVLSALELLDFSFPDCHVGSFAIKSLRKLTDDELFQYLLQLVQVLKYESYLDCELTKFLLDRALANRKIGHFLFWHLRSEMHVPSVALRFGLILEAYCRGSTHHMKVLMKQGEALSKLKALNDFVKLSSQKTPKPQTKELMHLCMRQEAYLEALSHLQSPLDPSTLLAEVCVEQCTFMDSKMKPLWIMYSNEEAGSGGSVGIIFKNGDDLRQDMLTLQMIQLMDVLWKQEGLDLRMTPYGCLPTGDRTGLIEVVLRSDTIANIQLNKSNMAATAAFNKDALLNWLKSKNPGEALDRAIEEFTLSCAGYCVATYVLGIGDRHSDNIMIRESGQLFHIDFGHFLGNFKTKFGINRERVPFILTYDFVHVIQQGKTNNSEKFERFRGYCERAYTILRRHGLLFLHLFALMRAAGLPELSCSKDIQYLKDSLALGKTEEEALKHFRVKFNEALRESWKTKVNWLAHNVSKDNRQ
# [2] = biological target: Tyrosine-protein kinase Fyn (Homo sapiens, UniProt P06241); test: as §1
# Sequence of Tyrosine-protein kinase Fyn (P06241 whole entry): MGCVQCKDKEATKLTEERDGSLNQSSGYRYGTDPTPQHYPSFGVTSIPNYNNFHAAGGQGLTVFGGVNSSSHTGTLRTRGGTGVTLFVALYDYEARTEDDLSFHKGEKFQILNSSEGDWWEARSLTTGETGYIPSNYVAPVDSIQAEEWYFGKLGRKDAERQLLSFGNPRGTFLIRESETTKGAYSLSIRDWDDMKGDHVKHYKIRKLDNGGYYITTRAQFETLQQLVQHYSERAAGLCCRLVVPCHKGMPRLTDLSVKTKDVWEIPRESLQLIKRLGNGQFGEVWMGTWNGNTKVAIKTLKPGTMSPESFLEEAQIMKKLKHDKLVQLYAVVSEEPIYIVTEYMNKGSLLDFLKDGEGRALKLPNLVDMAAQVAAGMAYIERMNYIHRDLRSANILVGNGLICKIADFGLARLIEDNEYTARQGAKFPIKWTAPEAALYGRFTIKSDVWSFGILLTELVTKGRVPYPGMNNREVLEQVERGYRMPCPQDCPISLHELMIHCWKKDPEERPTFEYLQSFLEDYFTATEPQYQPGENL
IC50 [1] [nM],IC50 [2] [nM],Compound
750,–,Nc1nc2cc(-c3nn(C[C@@H]4SSC[C@H]4OC(=O)c4ccccc4)c4ncnc(N)c34)ccc2o1 (relative stereo)
–,750,Nc1ncnc2c1c(-c1ccc(Oc3ccccc3)c(F)c1)nn2CC1SSCC1OC(=O)c1ccccc1 (configuration not stated)
